Structures can show the parent of a compound that is named as a salt. Where two headings read alike, the source gives them in different places.
Columns and labels:
Assay in all cases: AK assay 384-well format, Prestwick library screening
[1] = tested on: E. cloacae; assay type: cell-based, Enterobacter cloacae; conditions: Enterobacter cloacae, 3 h, 50 μM final drug concentration
[2] = tested on: E. faecium; assay type: cell-based, Enterococcus faecium; conditions: Enterococcus faecium, 3 h, 50 μM final drug concentration
[3] = tested on: K. pneumoniae; assay type: cell-based, Klebsiella pneumoniae; conditions: Klebsiella pneumoniae, 3 h, 50 μM final drug concentration
[4] = tested on: P. aeruginosa; assay type: cell-based, Pseudomonas aeruginosa; conditions: Pseudomonas aeruginosa, 3 h, 50 μM final drug concentration
[5] = tested on: A. baumannii strain 98-37-09; assay type: cell-based, Acinetobacter baumannii; conditions: Acinetobacter baumannii, 983709, 3 h, 50 μM final drug concentration
[6] = tested on: S. aureus strain USA300-0114; assay type: cell-based, Staphylococcus aureus; conditions: Staphylococcus aureus, USA300, 3 h, 50 μM final drug concentration
[7] = tested on: E. coli; assay type: cell-based, Escherichia coli; conditions: Escherichia coli, 3 h, 50 μM final drug concentration
[8] = planktonic E. cloacae, 384-well, cutoff for positive-scoring molecules 3-fold increase, read-out: AK-based Prestwick Library Screening Results: E. cloacae (increase in extracellular AK activity)
[9] = planktonic E. faecium, 384-well, cutoff for positive-scoring molecules 3-fold increase, read-out: AK-based Prestwick Library Screening Results: E. faecium (increase in extracellular AK activity)
[10] = planktonic K. pneumoniae, 384-well, cutoff for positive-scoring molecules 3-fold increase, read-out: AK-based Prestwick Library Screening Results: K. pneumoniae (increase in extracellular AK activity)
[11] = planktonic P. aeruginosa, 384-well, cutoff for positive-scoring molecules 3-fold increase, read-out: AK-based Prestwick Library Screening Results: P. aeruginosa (increase in extracellular AK activity)
[12] = planktonic A. baumannii, 384-well, cutoff for positive-scoring molecules 3-fold increase, read-out: AK-based Prestwick Library Screening Results: A. baumannii (increase in extracellular AK activity)
[13] = planktonic S. aureus, 384-well, cutoff for positive-scoring molecules 3-fold increase, read-out: AK-based Prestwick Library Screening Results: S. aureus (increase in extracellular AK activity)
[14] = planktonic E. coli, 384-well, cutoff for positive-scoring molecules 3-fold increase, read-out: AK-based Prestwick Library Screening Results: E. coli (increase in extracellular AK activity)
[15] = planktonic, cutoff for positive 3-fold increase, read-out: AK-based Prestwick Library Screening Results, E. cloacae (fold increase in extracellular AK activity)
[16] = planktonic, cutoff for positive 3-fold increase, read-out: AK-based Prestwick Library Screening Results, E. faecium (fold increase in extracellular AK activity)
[17] = planktonic, cutoff for positive 3-fold increase, read-out: AK-based Prestwick Library Screening Results, K. pneumoniae (fold increase in extracellular AK activity)
[18] = planktonic, cutoff for positive 3-fold increase, read-out: AK-based Prestwick Library Screening Results, P. aeruginosa (fold increase in extracellular AK activity)
[19] = planktonic, cutoff for positive 3-fold increase, read-out: AK-based Prestwick Library Screening Results, A. baumannii (fold increase in extracellular AK activity)
[20] = planktonic, cutoff for positive 3-fold increase, read-out: AK-based Prestwick Library Screening Results, S. aureus (fold increase in extracellular AK activity)
[21] = planktonic, cutoff for positive 3-fold increase, read-out: AK-based Prestwick Library Screening Results, E. coli (fold increase in extracellular AK activity)
[22] = planktonic, cutoff for positive-scoring molecules 3-fold increase, read-out: AK-based Prestwick Library Screening Results, E. cloacae (fold increase in extracellular AK activity)
[23] = planktonic, cutoff for positive-scoring molecules 3-fold increase, read-out: AK-based Prestwick Library Screening Results, E. faecium (fold increase in extracellular AK activity)
[24] = planktonic, cutoff for positive-scoring molecules 3-fold increase, read-out: AK-based Prestwick Library Screening Results, K. pneumoniae (fold increase in extracellular AK activity)
[25] = planktonic, cutoff for positive-scoring molecules 3-fold increase, read-out: AK-based Prestwick Library Screening Results, P. aeruginosa (fold increase in extracellular AK activity)
[26] = planktonic, cutoff for positive-scoring molecules 3-fold increase, read-out: AK-based Prestwick Library Screening Results, A. baumannii (fold increase in extracellular AK activity)
[27] = planktonic, cutoff for positive-scoring molecules 3-fold increase, read-out: AK-based Prestwick Library Screening Results, S. aureus (fold increase in extracellular AK activity)
[28] = planktonic, cutoff for positive-scoring molecules 3-fold increase, read-out: AK-based Prestwick Library Screening Results, E. coli (fold increase in extracellular AK activity)

CO[C@@]1(NC(=O)CSCC#N)C(=O)N2C(C(=O)O)=C(CSc3nnnn3C)CS[C@@H]21 [Cefmetazole sodium salt]
fold induction at 50 µM ([1]; cutoff for positive-scoring molecules 3-fold increase, read-out: AK-based Prestwick Library Screening Results, E. cloacae (fold increase in extracellular AK activity)): 1.6 | fold induction at 50 µM ([2]; cutoff for positive-scoring molecules 3-fold increase, read-out: AK-based Prestwick Library Screening Results, E. faecium (fold increase in extracellular AK activity)): 1.4 | fold induction at 50 µM ([3]; cutoff for positive-scoring molecules 3-fold increase, read-out: AK-based Prestwick Library Screening Results, K. pneumoniae (fold increase in extracellular AK activity)): 4.6 | fold induction at 50 µM ([4]; cutoff for positive-scoring molecules 3-fold increase, read-out: AK-based Prestwick Library Screening Results, P. aeruginosa (fold increase in extracellular AK activity)): 1 | fold induction at 50 µM ([5]; cutoff for positive-scoring molecules 3-fold increase, read-out: AK-based Prestwick Library Screening Results, A. baumannii (fold increase in extracellular AK activity)): 1.4 | fold induction at 50 µM ([6]; cutoff for positive-scoring molecules 3-fold increase, read-out: AK-based Prestwick Library Screening Results, S. aureus (fold increase in extracellular AK activity)): 5 | fold induction at 50 µM ([7]; cutoff for positive-scoring molecules 3-fold increase, read-out: AK-based Prestwick Library Screening Results, E. coli (fold increase in extracellular AK activity)): 20

CCN1CCN(C(=O)N[C@@H](C(=O)N[C@@H]2C(=O)N3C(C(=O)O)=C(CSc4nnnn4C)CS[C@H]23)c2ccc(O)cc2)C(=O)C1=O [Cefoperazone dihydrate]
fold induction at 50 µM [1, 8]: 12 | fold induction at 50 µM [2, 9]: 0.9 | fold induction at 50 µM [3, 10]: 2.1 | fold induction at 50 µM [4, 11]: 5.2 | fold induction at 50 µM [5, 12]: 0.7 | fold induction at 50 µM [6, 13]: 0.7 | fold induction at 50 µM [7, 14]: 16.5

NCc1ccccc1CC(=O)N[C@@H]1C(=O)N2C(C(=O)O)=C(CSc3nnnn3CC(=O)O)CS[C@H]12 [Ceforanide]
fold induction at 50 µM [1, 15]: 1.9 | fold induction at 50 µM [2, 16]: 1 | fold induction at 50 µM [3, 17]: 3.1 | fold induction at 50 µM [4, 18]: 1.2 | fold induction at 50 µM [5, 19]: 1.8 | fold induction at 50 µM [6, 20]: 1.8 | fold induction at 50 µM [7, 21]: 12.2

CO/N=C(\C(=O)N[C@@H]1C(=O)N2C(C(=O)O)=C(COC(C)=O)CS[C@H]12)c1csc(N)n1 [Cefotaxime sodium salt]
fold induction at 50 µM [1, 8]: 22 | fold induction at 50 µM [2, 9]: 1 | fold induction at 50 µM [3, 10]: 5.5 | fold induction at 50 µM [4, 11]: 10 | fold induction at 50 µM [5, 12]: 2.2 | fold induction at 50 µM [6, 13]: 2.9 | fold induction at 50 µM [7, 14]: 21.9

CO[C@@]1(NC(=O)C2SC(=C(C(N)=O)C(=O)O)S2)C(=O)N2C(C(=O)O)=C(CSc3nnnn3C)CS[C@@H]21 (some centres unmarked) [Cefotetan]
fold induction at 50 µM [1, 15]: 25.3 | fold induction at 50 µM [2, 16]: 1.2 | fold induction at 50 µM [3, 17]: 8.4 | fold induction at 50 µM [4, 18]: 1.2 | fold induction at 50 µM [5, 19]: 2 | fold induction at 50 µM [6, 20]: 2.5 | fold induction at 50 µM [7, 21]: 22.1

CN(C)CCn1nnnc1SCC1=C(C(=O)O)N2C(=O)[C@@H](NC(=O)Cc3csc(N)n3)[C@H]2SC1 [Cefotiam hydrochloride]
fold induction at 50 µM [1, 8]: 15.6 | fold induction at 50 µM [2, 9]: 0.9 | fold induction at 50 µM [3, 10]: 7.8 | fold induction at 50 µM [4, 11]: 0.6 | fold induction at 50 µM [5, 12]: 0.9 | fold induction at 50 µM [6, 13]: 2.3 | fold induction at 50 µM [7, 14]: 23.9

CO[C@@]1(NC(=O)Cc2cccs2)C(=O)N2C(C(=O)O)=C(COC(N)=O)CS[C@@H]21 [Cefoxitin sodium salt]
fold induction at 50 µM [1, 22]: 1.2 | fold induction at 50 µM [2, 23]: 1 | fold induction at 50 µM [3, 24]: 3.2 | fold induction at 50 µM [4, 25]: 0.8 | fold induction at 50 µM [5, 26]: 1.3 | fold induction at 50 µM [6, 27]: 3.4 | fold induction at 50 µM [7, 28]: 20.1

NC(=O)c1cc[n+](CC2=C(C(=O)O)N3C(=O)[C@@H](NC(=O)[C@@H](c4ccccc4)S(=O)(=O)[O-])[C@H]3SC2)cc1 [Cefsulodin sodium salt]
fold induction at 50 µM [1, 22]: 0.9 | fold induction at 50 µM [2, 23]: 0.9 | fold induction at 50 µM [3, 24]: 0.7 | fold induction at 50 µM [4, 25]: 8.6 | fold induction at 50 µM [5, 26]: 1.1 | fold induction at 50 µM [6, 27]: 1 | fold induction at 50 µM [7, 28]: 0.9

Reference: patent US10004701B2, “Methods and compositions for treating infection” (UNIVERSITY OF ROCHESTER, priority 2012, dated 2018)
